The values that follow come from PubChem BioAssay AID1117359 (Southern Research Institute, 2015).

As usually defined, the CC50 is the concentration that lowers cell viability or growth by half.

This experiment deals with THP-1 viability, CellTiter-Glo luminescence, 72 h. In words: THP-1 cell cytotoxicity, dose response, cytotoxicity control for Vif-APOBEC3G degradation inhibitor project, THP-1 cells (AID 1117359).
As for `Oc1ccc(/C=N/NP(=S)(c2ccccc2)c2ccccc2)c(O)c1O`, the half-maximal cytotoxic concentration (CC50) is 38.3 µM. Consider `O=[N+]([O-])c1c(NCCO)cc(Sc2nc3ccccc3s2)c2nonc12`, for which the CC50 was 17.9 µM. With `CCOC(=O)C(C(=O)OCC)c1cc(Br)c2noc3c2c1C(=O)c1ccccc1-3`, the CC50 was 9.78 µM.

As to `CCOc1cc(CNc2ccc(O)cc2)ccc1OCc1ccc(Cl)cc1Cl`, the cytotoxic concentration (CC50) is 8.81 µM. To `COC(C(=O)C(O)C(C)O)C1Cc2cc3cc(OC4CC(OC5CC(O)C(O)C(C)O5)C(O)C(C)O4)c(C)c(O)c3c(O)c2C(=O)C1OC1CC(OC2CC(OC3CC(O)C(OC)C(C)O3)C(O)C(C)O2)C(O)C(C)O1` (stereo not drawn) belongs under 0.08 µM; to `CCN=c1scc(C)n1/N=C/c1ccc(O)c(O)c1O`, 19.9 µM. To `CSc1nc(N(CCO)CCO)c2sc3nc(-c4ccco4)c4c(c3c2n1)CCC4` belongs 19.8 µM; to `Oc1ccc(N=Cc2ccc(O)c(O)c2)cc1`, 13 µM.
